# Test results taken from US20240226107A1, “UBIQUITIN-SPECIFIC PROTEASE 1 (USP1) INHIBITOR” (SIMCERE ZAIMING PHARMACEUTICAL CO., LTD., priority 2021, published 2024).
# Read-outs that look alike come from different tables or passages of the source.
# What was measured:
# [1] = Solubility (PBS pH 7.4) of compound solids; format: physicochemical; conditions: aqueous buffer, thermodynamic from solid, PBS pH 7.4, 25° C.
# Procedure: The solubility (PBS pH 7.4) of compound solids to be tested was determined by LC/MS/MS. Approximately 1 mg of each compound powder was accurately weighed into a glass vial, and DMSO was added in a volume of 1 mL per milligram of compound. […] In 490 μL of water and acetonitrile (1:1) containing an internal standard, 5 μL of 1 mg/mL solution and 5 μL of PBS pH 7.4 solution were mixed to prepare 10 μg/mL standard concentration solution of the sample to be tested. Then 10 μL of 10 μg/mL solution was diluted in 90 μL of water and acetonitrile (1:1) containing an internal standard to prepare 1 μg/mL standard concentration solution of the sample to be tested. The dilution factor of the standard solution can be adjusted according to the strength of response signals in LC/MS. Approximately 1 mg of each compound powder was accurately weighed into a glass vial, and PBS pH 7.4 solution was added in a volume of 1 mL per milligram of compound. A stir bar was added to each vial, and the solubility sample vial was shaken at 1100 rpm at 25° C. for 24 h. After shaking, the stir bar was removed, and the sample was transferred to a filter plate and filtered using a vacuum manifold. […]
# The resulting samples were determined by LC/MS/MS. The sample solubility was calculated from peak areas of the solution of the compound to be tested and the standard concentration solution, according to the following equation: […]
# [2] = tested on: MDA-MB-436 cells;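 further: MDA-MB-436 proliferation over 7 days with compound, viability read as ATP luminescence (CellTiter-Glo), inhibition relative to DMSO-only wells, day 0 signal as background, GI50 from four-parameter fit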
# Procedure: Assay based on CellTiter-Glo luminescent cell viability assay system.
# The assay kit (CellTiter-Glo® Luminescent Cell Viability Assay) was purchased from Promega, with Cat. No. of G7573, and was stored at −30° C. after subpackage. The kit is a homogeneous assay method for assaying the number of viable cells in a culture based on quantitative determination of ATP. The kit produces a luminescence signal proportional to the amount of ATP present, and the amount of ATP is directly proportional to the number of cells in the culture.
# The cultured cells were trypsinized, collected and centrifuged, then resuspended at an adjusted concentration in a culture solution (DMEM+10% FBS), and cultured overnight on a 384-well plate (400 cells/20 μl/well) in a cell incubator with 5% CO2 at 37° C. An ECHO instrument was used to added the compound and pure DMSO onto each well of the 384-well plate. The total volume of the compound and DMSO is 100 nL, and the instrument obtains gradient diluted sample concentrations through different ratios. To each well, 30 μL of culture solution was added, and after mixing by centrifugal oscillation and re-centrifugation, the cells were cultured in a cell incubator for 7 days (one column of cells was subjected to CTG assay on the day of dosing). After day 7, 25 μL of CTG assay solution was added to each well, and after mixing by centrifugal oscillation and re-centrifugation, the cells were placed at room temperature away from light for 10 min. In terms of chemiluminescence signals, an Envision plate reader (PerkinElmer, emission wavelength: 400-700 nm) was used to measure a signal in each well. The chemiluminescence value [RLU]cpd on day 7 was obtained for the treatment group, the chemiluminescence value [RLU]cell on day 7 was obtained for the non-treatment group (given DMSO only), and the chemiluminescence value [RLU]background on day 0 was obtained for the parallel non-treatment group (given DMSO only) by CTG assay on day 0. […] In the following equation, x represents the concentration of the compound in a logarithmic form; and F(x) represents an effect value (inhibition rate of proliferation at the concentration): F(x)=(A+((B−A)/(1+((C/x)^D)))). A, B, C, and D are four parameters.
# [3] = biological target: CYP1A2 (Homo sapiens (Human), UniProt P05177); test: CYP enzyme inhibition in pooled human liver microsomes (phenacetin); format: in vitro ADME
# Sequence of CYP1A2 (P05177 whole entry): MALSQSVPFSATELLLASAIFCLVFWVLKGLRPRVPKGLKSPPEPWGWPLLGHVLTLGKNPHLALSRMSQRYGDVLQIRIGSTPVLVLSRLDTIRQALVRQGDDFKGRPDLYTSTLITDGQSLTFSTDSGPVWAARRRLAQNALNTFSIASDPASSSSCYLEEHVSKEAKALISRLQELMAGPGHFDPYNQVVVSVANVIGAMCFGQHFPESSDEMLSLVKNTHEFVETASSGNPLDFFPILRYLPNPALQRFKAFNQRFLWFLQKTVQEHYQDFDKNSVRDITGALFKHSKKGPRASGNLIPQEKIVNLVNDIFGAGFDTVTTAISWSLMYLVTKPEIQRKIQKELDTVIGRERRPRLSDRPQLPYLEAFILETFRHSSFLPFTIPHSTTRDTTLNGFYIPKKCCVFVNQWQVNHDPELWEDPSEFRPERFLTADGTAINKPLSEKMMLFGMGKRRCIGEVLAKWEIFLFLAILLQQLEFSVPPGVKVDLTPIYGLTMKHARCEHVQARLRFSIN
# Procedure: Typical substrate metabolic responses of five major human CYP subtypes (CYP1A2, CYP2C9, CYP2C19, CYP2D6, CYP3A4) were evaluated using 150-donor pooled human liver microsomes (purchased from Corning, Cat. No.: 452117). The influence of different concentrations of each compound to be tested on metabolic responses of phenacetin (CYP1A2), diclofenac sodium (CYP2C9), S-mephenytoin (CYP2C19), bufuralol hydrochloride (CYP2D6), and midazolam (CYP3A4) was determined by liquid chromatography-mass spectrometry (LC/MS/MS). […] Then 200 μL of acetonitrile solution containing 3% formic acid and 40 nM internal standard verapamil was added and centrifuged at 4000 rpm for 50 min. The mixture was cooled on ice for 20 min and centrifuged at 4000 rpm for 20 min to precipitate the protein. Then 200 μL of supernatant was analyzed by LC-MS/MS. The peak area was calculated from the chromatogram. The residual activity ratio (%) was calculated according to the following equation: Peak area ratio=metabolite peak area/internal standard peak area Residual activity ratio (%)=peak area ratio of compounds-to-be-tested group/peak area ratio of blank group The half inhibitory concentration (IC50) for CYP was calculated by Excel XLfit 5.3.1.3.
# [4] = Solubility (PBS pH 7.4) of compounds from DMSO solution; format: physicochemical; conditions: aqueous buffer, kinetic from dmso stock, 10 mM DMSO solution into PBS pH 7.4, 25° C., read-out: Calculated solubility
# Procedure: The solubility (PBS pH 7.4) of a compound to be tested was determined by LC/MS/MS. 6 μL of 10 mM DMSO solution of the compound to be tested was mixed with 194 μL of DMSO to prepare 300 μM compound solution. In 490 μL of water and acetonitrile (1:1) containing an internal standard, 5 μL of the solution and 5 μL of PBS pH 7.4 solution were mixed to prepare 3 μM standard concentration solution of the sample to be tested. The dilution factor of the standard solution can be adjusted according to the strength of response signals in LC/MS.
# To 485 μL of PBS pH 7.4 solution, 15 μL of 10 mM DMSO solution of the compound to be tested was added. […] After shaking, the stir bar was removed, and the sample was transferred to a filter plate and filtered using a vacuum manifold. In 490 μL of water and acetonitrile (1:1) containing an internal standard, 5 μL of filtrate and 5 μL of PBS pH 7.4 solution were mixed to prepare a solution to be tested. The dilution factor can be adjusted according to the solubility value and the strength of response signals in LC/MS.
# The resulting samples were determined by LC/MS/MS. The sample solubility was calculated from peak areas of the solution of the compound to be tested and the standard concentration solution, according to the following equation:
# [formula] • [Sample] is the solubility of the sample to be tested; • Area ratiosample is the ratio of the peak area of sample in the sample to be tested to the peak area of the internal standard; • INJ VOL STD is the injection volume of the standard concentration solution; • DFsample is the dilution factor of the solution of the sample to be tested; • [STD] is the concentration of the standard concentration solution; • INJ VOLsample is the injection volume of the solution of the sample to be tested; and • Area ratio STD is the ratio of the peak area of sample in the standard concentration solution to the peak area of the internal standard.
# [5] = Metabolic stability in vitro in human hepatocytes; format: in vitro ADME; conditions: read-out: Intrinsic clearance
# Procedure: The concentration of each compound in the reaction system was measured by LC/MS/MS to calculate the intrinsic clearance of the compounds to be tested, and evaluate the metabolic stability in vitro in human hepatocytes.
# To the incubation plate, 198 μL of 0.5×10^6 cells/mL human hepatocyte mixture and 2.0 μL of 100 μM compound to be tested or positive control were added to initiate reaction. Incubation was performed at 900 rpm at 37° C. […] Then the mixture was vortex-mixed for 5 min. […] Then 100 μL of supernatant of each compound was transferred to a 96-well sample plate, and 100 μL of purified water was added to dilute the sample.
# The resulting samples were quantified by ion chromatograms. The residual rate was calculated from peak areas of the compounds to be tested or the positive control. The slope k was determined using Microsoft Excel by linear regression of natural logarithm of the residual rate to the incubation time. The intrinsic clearance (in vitro CLint, μL/min/10^6 cells) was calculated from the slope value according to the following equation: […]
smiles,measurement,setting,value
"COc1ncnc(C2CC2)c1-c1ncc2c(n1)N(Cc1ccc(-c3nc(C(F)(F)F)cn3C)cc1)CC(=O)N2C [Compound 11, 2-(4-cyclopropyl-6-methoxypyrimidin-5-yl)-5-methyl-8-(4-(1-methyl-4-(trifluoromethyl)-1H-imidazol-2-yl)benzyl)-7,8-dihydropteridin-6(5H)-one]",solubility at 24 h,[1]; read-out: Calculated solubility,181 µM
same,solubility at 24 h,[1]; read-out: Solubility,99.7 µg/mL
same,GI50,[2],32.8 nM
same,IC50,[3],> 30000 nM
same,solubility at 2 h,[4],214 µM
same,hepatocyte CLint at 1 μM,[5],< 1 µL/min/1e6 cells
